Data from PubChem BioAssay (NCI).
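Five concentrations, 48 hours, 96-well plates. TGI: total growth inhibition.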

How the values were obtained:
Assay in all cases: NCI anticancer screen, dose series, 48 h
LOX IMVI melanoma = system: LOX IMVI melanoma
HOP-62 NSCLC = system: HOP-62 NSCLC
SF-295 CNS = system: SF-295 CNS
T-47D breast = system: T-47D breast
RXF 393 renal = system: RXF 393 renal
SK-OV-3 ovarian = system: SK-OV-3 ovarian
IGROV1 ovarian = system: IGROV1 ovarian
786-0 renal = system: 786-0 renal
A498 renal = system: A498 renal
UO-31 renal = system: UO-31 renal
MDA-MB-435 = system: MDA-MB-435
HL-60(TB) leukemia = system: HL-60(TB) leukemia
SW-620 colon = system: SW-620 colon
UACC-62 melanoma = system: UACC-62 melanoma
NCI-H23 lung = system: NCI-H23 lung
OVCAR-4 ovarian = system: OVCAR-4 ovarian
K-562 leukemia = system: K-562 leukemia
OVCAR-3 ovarian = system: OVCAR-3 ovarian
NCI-H226 lung = system: NCI-H226 lung
HS 578T breast = system: HS 578T breast
HCT-15 colon = system: HCT-15 colon
SR leukemia = system: SR leukemia
MDA-MB-231 breast = system: MDA-MB-231 breast
OVCAR-8 ovarian = system: OVCAR-8 ovarian
SN12C renal = system: SN12C renal
SNB-75 CNS = system: SNB-75 CNS
EKVX NSCLC = system: EKVX NSCLC
ACHN renal = system: ACHN renal
NCI-H460 lung = system: NCI-H460 lung
SK-MEL-2 melanoma = system: SK-MEL-2 melanoma
SF-539 CNS = system: SF-539 CNS
RPMI-8226 leukemia = system: RPMI-8226 leukemia
OVCAR-5 ovarian = system: OVCAR-5 ovarian
HCT-116 colon = system: HCT-116 colon
KM12 colon = system: KM12 colon
SK-MEL-5 melanoma = system: SK-MEL-5 melanoma
CCRF-CEM leukemia = system: CCRF-CEM leukemia
UACC-257 melanoma = system: UACC-257 melanoma
M14 melanoma = system: M14 melanoma
A549 NSCLC = system: A549 NSCLC
DU-145 prostate = system: DU-145 prostate
MALME-3M melanoma = system: MALME-3M melanoma
COLO 205 colon = system: COLO 205 colon
U251 CNS = system: U251 CNS
TK-10 renal = system: TK-10 renal
BT-549 breast = system: BT-549 breast
HT29 colon = system: HT29 colon
CAKI-1 renal = system: CAKI-1 renal
NCI-H522 lung = system: NCI-H522 lung
HCC-2998 colon = system: HCC-2998 colon
SK-MEL-28 melanoma = system: SK-MEL-28 melanoma
HOP-92 NSCLC = system: HOP-92 NSCLC
SF-268 CNS = system: SF-268 CNS
PC-3 prostate = system: PC-3 prostate
SNB-19 CNS = system: SNB-19 CNS
NCI/ADR-RES ovarian = system: NCI/ADR-RES ovarian
MDA-N = system: MDA-N
MCF7 breast = system: MCF7 breast
MOLT-4 leukemia = system: MOLT-4 leukemia

O=S(=O)(O)c1cc(N=[N+]([O-])c2cc(S(=O)(=O)O)c3ccccc3c2)cc2ccccc12
TGI (LOX IMVI melanoma): 60.6 µM
TGI (HOP-62 NSCLC): > 100 µM
TGI (SF-295 CNS): > 100 µM
TGI (T-47D breast): > 100 µM
TGI (RXF 393 renal): > 100 µM
TGI (SK-OV-3 ovarian): > 100 µM
TGI (IGROV1 ovarian): > 100 µM
TGI (786-0 renal): > 100 µM
TGI (A498 renal): > 100 µM
TGI (UO-31 renal): 50.2 µM
TGI (MDA-MB-435): > 100 µM
TGI (HL-60(TB) leukemia): > 100 µM
TGI (SW-620 colon): > 100 µM
TGI (UACC-62 melanoma): > 100 µM
TGI (NCI-H23 lung): 77 µM
TGI (OVCAR-4 ovarian): 38.2 µM
TGI (K-562 leukemia): > 100 µM
TGI (OVCAR-3 ovarian): 28.2 µM
TGI (NCI-H226 lung): > 100 µM
TGI (HS 578T breast): > 100 µM
TGI (HCT-15 colon): > 100 µM
TGI (SR leukemia): > 100 µM
TGI (MDA-MB-231 breast): > 100 µM
TGI (OVCAR-8 ovarian): > 100 µM
TGI (SN12C renal): 53.8 µM
TGI (SNB-75 CNS): 30 µM
TGI (EKVX NSCLC): > 100 µM
TGI (ACHN renal): > 100 µM
TGI (NCI-H460 lung): > 100 µM
TGI (SK-MEL-2 melanoma): 66.1 µM
TGI (SF-539 CNS): 60.2 µM
TGI (RPMI-8226 leukemia): > 100 µM
TGI (OVCAR-5 ovarian): > 100 µM
TGI (HCT-116 colon): > 100 µM
TGI (KM12 colon): > 100 µM
TGI (SK-MEL-5 melanoma): 32.8 µM
TGI (CCRF-CEM leukemia): > 100 µM
TGI (UACC-257 melanoma): > 100 µM
TGI (M14 melanoma): > 100 µM
TGI (A549 NSCLC): > 100 µM
TGI (DU-145 prostate): 40.1 µM
TGI (MALME-3M melanoma): > 100 µM
TGI (COLO 205 colon): > 100 µM
TGI (U251 CNS): > 100 µM
TGI (TK-10 renal): > 100 µM
TGI (BT-549 breast): 39 µM
TGI (HT29 colon): > 100 µM
TGI (CAKI-1 renal): 44.4 µM
TGI (NCI-H522 lung): 65.9 µM
TGI (HCC-2998 colon): > 100 µM
TGI (SK-MEL-28 melanoma): > 100 µM
TGI (HOP-92 NSCLC): > 100 µM
TGI (SF-268 CNS): > 100 µM
TGI (PC-3 prostate): > 100 µM
TGI (SNB-19 CNS): > 100 µM
TGI (NCI/ADR-RES ovarian): > 100 µM
TGI (MDA-N): 41.7 µM
TGI (MCF7 breast): > 100 µM

O[C@H]1[C@H]2[C@H](O)C[C@H](CCOCc3ccccc3)CN2C[C@H]1O
TGI (LOX IMVI melanoma): > 100 µM
TGI (SF-295 CNS): > 100 µM
TGI (T-47D breast): > 100 µM
TGI (RXF 393 renal): > 100 µM
TGI (SK-OV-3 ovarian): > 100 µM
TGI (IGROV1 ovarian): > 100 µM
TGI (786-0 renal): > 100 µM
TGI (A498 renal): > 100 µM
TGI (UO-31 renal): > 100 µM
TGI (MDA-MB-435): > 100 µM
TGI (HL-60(TB) leukemia): > 100 µM
TGI (SW-620 colon): > 100 µM
TGI (UACC-62 melanoma): > 100 µM
TGI (MOLT-4 leukemia): > 100 µM
TGI (NCI-H23 lung): > 100 µM
TGI (OVCAR-4 ovarian): > 100 µM
TGI (K-562 leukemia): > 100 µM
TGI (OVCAR-3 ovarian): > 100 µM
TGI (NCI-H226 lung): > 100 µM
TGI (HS 578T breast): > 100 µM
TGI (HCT-15 colon): > 100 µM
TGI (SR leukemia): > 100 µM
TGI (MDA-MB-231 breast): > 100 µM
TGI (OVCAR-8 ovarian): > 100 µM
TGI (SN12C renal): > 100 µM
TGI (SNB-75 CNS): > 100 µM
TGI (EKVX NSCLC): > 100 µM
TGI (ACHN renal): > 100 µM
TGI (NCI-H460 lung): > 100 µM
TGI (SK-MEL-2 melanoma): > 100 µM
TGI (SF-539 CNS): > 100 µM
TGI (RPMI-8226 leukemia): > 100 µM
TGI (OVCAR-5 ovarian): > 100 µM
TGI (HCT-116 colon): > 100 µM
TGI (KM12 colon): > 100 µM
TGI (SK-MEL-5 melanoma): > 100 µM
TGI (CCRF-CEM leukemia): > 100 µM
TGI (UACC-257 melanoma): > 100 µM
TGI (M14 melanoma): > 100 µM
TGI (A549 NSCLC): > 100 µM
TGI (DU-145 prostate): > 100 µM
TGI (MALME-3M melanoma): > 100 µM
TGI (COLO 205 colon): > 100 µM
TGI (U251 CNS): > 100 µM
TGI (BT-549 breast): > 100 µM
TGI (HT29 colon): > 100 µM
TGI (CAKI-1 renal): > 100 µM
TGI (NCI-H522 lung): > 100 µM
TGI (HCC-2998 colon): > 100 µM
TGI (SK-MEL-28 melanoma): > 100 µM
TGI (HOP-92 NSCLC): > 100 µM
TGI (SF-268 CNS): > 100 µM
TGI (PC-3 prostate): > 100 µM
TGI (SNB-19 CNS): > 100 µM
TGI (NCI/ADR-RES ovarian): > 100 µM
TGI (MDA-N): > 100 µM
TGI (MCF7 breast): > 100 µM
